# Results from ChEMBL document CHEMBL2429756, “Synthesis, docking, and in vitro studies of some substituted bischalcones on acid and alkaline phosphatases” (Med Chem Res, 2013).
# What was measured:
# [1] = Non-competitive inhibition of goat liver alkaline phosphatase assessed as residual activity using p-nitrophenyl phosphate as substrate by Lineweaver-Burk plot analysis; design: species or system Capra hircus
# [2] = species on record: Capra hircus; test: Inhibition of goat liver alkaline phosphatase assessed as residual activity using p-nitrophenyl phosphate as substrate at 1 mM after 30 mins relative to control
# [3] = species on record: Capra hircus; test: Inhibition of goat liver acid phosphatase assessed as residual activity using p-nitrophenyl phosphate as substrate at 1 mM after 30 mins relative to control
# [4] = Competitive inhibition of goat liver alkaline phosphatase assessed as residual activity using p-nitrophenyl phosphate as substrate by Lineweaver-Burk plot analysis; design: species or system Capra hircus
structure (smiles),measurement,setting,value
Cc1ccc(/C=C2\CCC/C(=C\c3ccc(C)cc3)C2=O)cc1,Ki,[1],845 µM
same,Activity,[2],46%
same,Activity,[3],149%
"O=C1/C(=C/c2ccccc2)CCC/C1=C\c1ccccc1 [2,6-DIBENZYLIDENECYCLOHEXANONE]",Ki,[4],470 µM
same,Activity,[2],41.2%
same,Activity,[3],121%
CN(C)c1ccc(/C=C2\CCC/C(=C\c3ccc(N(C)C)cc3)C2=O)cc1,Ki,[4],470 µM
same,Activity,[2],40.2%
same,Activity,[3],113%
O=C1/C(=C/c2ccc(F)cc2)CCC/C1=C\c1ccc(F)cc1,Ki,[4],1090 µM
same,Activity,[2],57.8%
same,Activity,[3],140%
O=C1/C(=C/C=C/c2ccccc2)CCC/C1=C\C=C\c1ccccc1,Ki,[1],441 µM
same,Activity,[2],30.8%
same,Activity,[3],129%
O=C1/C(=C/c2ccc([N+](=O)[O-])cc2)CCC/C1=C\c1ccc([N+](=O)[O-])cc1,Ki,[4],250 µM
same,Activity,[2],26%
same,Activity,[3],133%
O=C1/C(=C/c2ccc(Br)cc2)CCC/C1=C\c1ccc(Br)cc1,Ki,[4],565 µM
same,Activity,[2],43.5%
same,Activity,[3],127%
c1ccc([C@H]2CN3CCSC3=N2)cc1 [LEVAMISOLE],Ki,[4],4000 µM
same,Activity,[2],88%
O=C1/C(=C/c2ccc(Cl)cc2)CCC/C1=C\c1ccc(Cl)cc1,Ki,[4],670 µM
same,Activity,[2],46.2%
same,Activity,[3],129%
COc1ccc(/C=C2\CCC/C(=C\c3ccc(OC)cc3)C2=O)cc1,Ki,[4],389 µM
same,Activity,[2],31.7%
same,Activity,[3],158%
